How the values were obtained:
[1] = test system: PBMCs; format: cell-based, human
[2] = test system: purified HLA-A2; set-up: species or system human; conditions: >50, 20–50, <20% binding at 10^−6 mol/l = high, intermediate, low binders

Substance	Frequencies of recognition, Control subjects [1]	Frequencies of recognition, Patients [1]	Responses (stimulation score), Control subjects [1]	Responses (stimulation score), Patients [1]	Frequencies of recognition, C [1]	Frequencies of recognition, D [1]	Frequencies of recognition, L [1]	Frequencies of recognition, R [1]	Recognized in % of patients [1]	Recognized in % of recent-onset patients [1]	Responses (stimulation score), C [1]	Responses (stimulation score), L [1]	Responses (stimulation score), R [1]	Binding to HLA-A2 (in words) [2]	Responses (stimulation score), D [1]
ELRSRYWAI [NP 380–388, reference compound]	2/7	7/13	5 (2–131)	8 (0–119)	–	–	–	–	–	–	–	–	–	–	–
AAVDLSHFL [Nef 83–91, reference compound]	0/4	0/12	0 (0–5)	3 (0–20)	–	–	–	–	–	–	–	–	–	–	–
EWRFDSRLA [Nef 182–189, reference compound]	0/3	0/8	0 (0–0)	1 (0–35)	–	–	–	–	–	–	–	–	–	–	–
ALWGPDPAAA [15–24]	0/6	8/17	0 (0–0)	12.2 (0–52.8)	0/4	0/2	1/4	7/13	> 40%	> 50%	0 (0–0)	12.8 (2.4–32.2)	8.7 (0–52.8)	high binders	–
Peptide 1–8: human preproinsulin leader sequence peptide, residues 1–8, MALWMRLL	–	–	–	–	–	–	–	–	–	–	–	–	–	no significant binding	–
RLLPLLALLAL [6–16]	0/12	9/20	0 (0–9.5)	7.3 (0–111.7)	0/8	0/4	2/4	7/16	> 40%	at least 30%	0 (0–9.5)	12.2 (10–54.5)	5 (0–111.7)	high binders	0 (0–0)
RLLPLLALL [6–14]	0/6	5/18	4.7 (3.9–7.2)	30.6 (7.8–144)	0/4	0/2	1/4	4/14	–	–	4.7 (3.9–7.2)	28.9 (21.1–51.1)	30.6 (7.8–144)	high binders	–

Source: PMC2628613 (Diabetes, 2009)
